The text below walks through data of ChEMBL document CHEMBL5120894, “Isolation, Biosynthetic Investigation, and Biological Evaluation of Maniwamycin G, an Azoxyalkene Compound from Streptomyces sp. TOHO-M025” (J Nat Prod, 2022).

In brackets after ≈: the same amount, converted by molar mass. Activity calls are given as the source filed them. No cut-off for these calls is given here.

Assay [1] is described as follows: Inhibition of quorum sensing system in Chromobacterium violaceum CV026 assessed as reduction in violacein production incubated for 24 hrs.
Assay [2] is described as follows: Inhibition of quorum sensing system in Chromobacterium violaceum CV026 assessed as reduction in violacein production at 1 mg/ml incubated for 24 hrs relative to control.

With `CCCC/C=C/[N+]([O-])=N/[C@H](C)[C@H](C)O`, the IC50 in assay [1] is 120 µg/mL (≈ 599 µM).

Take `CCCC(O)/C=C/[N+]([O-])=N/C(C)C(C)O` (stereo not given): in assay [1], the inhibition result was “Active”.

For `CCCC/C=C/[N+]([O-])=N/[C@H](C)[C@@H](C)O`, in assay [1], the IC50 came out at 120 µg/mL (≈ 599 µM).

For the compound `CCCC/C=C/[N+]([O-])=N/[C@H](C)[C@H](O)CC(=O)OC`, in assay [2], the inhibition is 40%.

Take `CCCC/C=C/[N+]([O-])=N/C(C)C(O)C(N)=O` (stereo not given): the IC50 in assay [1] was found to be 500 µg/mL (≈ 2180 µM).

Usually IC50 stands for the concentration that gives 50% inhibition. One may read the inhibition as the share of the control response that was lost under treatment.
